In this data set the test system is rodent lifetime carcinogenesis bioassay, tumor incidence TD50. Put plainly: carcinogenic potency in animals, long-term in vivo studies, CPDB compilation (AID 1745844).

In general, TD50 refers to the 50% point of the dose-response relation for the toxic effect studied.

Values joined by “and” are separate entries in the source; they are usually repeats but may differ in a detail not shown here. Identical values can stand only once. Active and inactive are the calls of the source. The rule behind the calls is not given here.

Consider `COC(=O)NN`, for which the carcinogen call reads like this: (rat, strain Wistar, females, in feed, site: any site (literature study), lesion: one or several types, types not named, dosed 104 weeks, study length 104 weeks) “negative (inactive)”; (rat, strain Wistar, males, in feed, site: any site (literature study), lesion: one or several types, types not named, dosed 104 weeks, study length 104 weeks) “negative (inactive)”.
Consider `Cc1c(N(C)CS(=O)(=O)O)c(=O)n(-c2ccccc2)n1C`, for which the TD50 (mouse, strain B6C3F1, females, in drinking water, site: liver, lesion: hepatocellular carcinoma, dosed 75 weeks, study length 86 weeks) worked out at 7120 mg/kg/day; the TD50 (mouse, strain B6C3F1, females, in drinking water, site: liver, lesion: several types, types named in the paper, dosed 75 weeks, study length 86 weeks) is 742 mg/kg/day; the TD50 (mouse, strain B6C3F1, males, in drinking water, site: liver, lesion: several types, types named in the paper, dosed 77 weeks, study length 86 weeks) is 547 mg/kg/day; the TD50 (rat, strain F344/DuCrj, males, in drinking water, site: liver, lesion: neoplastic nodule, dosed 72 weeks, study length 83 weeks) was 400 mg/kg/day; the TD50 (rat, strain Wistar, females, in feed, site: liver, lesion: adenoma, dosed 104 weeks, study length 130 weeks) is 33100 mg/kg/day (inactive); the TD50 (rat, strain Wistar, females, in feed, site: liver, lesion: angiosarcoma, dosed 104 weeks, study length 130 weeks) is 41400 mg/kg/day (inactive). The TD50 reads like this: (rat, strain Wistar, females, in feed, site: liver, lesion: liver-cell carcinoma, dosed 104 weeks, study length 130 weeks) 8330 mg/kg/day (inactive); (rat, strain Wistar, females, in feed, site: mammary gland, lesion: adenoma, dosed 104 weeks, study length 130 weeks) 328 mg/kg/day (inactive); (rat, strain Wistar, males, in feed, site: liver, lesion: adenoma, dosed 104 weeks, study length 130 weeks) 3340 mg/kg/day (inactive). Further, under “rat, strain Wistar, males, in feed, site: liver, lesion: anaplastic carcinoma, dosed 104 weeks, study length 130 weeks”, the carcinogen call was “negative (inactive)”.
Take `Cc1ccc2ncccc2c1`: the TD50 was 230 mg/kg/day (inactive) (rat, strain Fischer 344, females, in feed, site: liver, lesion: hyperplastic nodule, dosed 104 weeks, study length 104 weeks) and 123 mg/kg/day (inactive) (rat, strain Fischer 344, males, in feed, site: liver, lesion: hyperplastic nodule, dosed 104 weeks, study length 104 weeks).
In the case of `CC[C@H]1OC(=O)C[C@@H](O)[C@H](C)[C@@H](O[C@@H]2O[C@H](C)[C@@H](O[C@H]3C[C@@](C)(O)[C@@H](O)[C@H](C)O3)[C@H](N(C)C)[C@H]2O)[C@@H](CC=O)C[C@@H](C)C(=O)/C=C/C(C)=C/C1CO[C@@H]1O[C@H](C)[C@@H](O)[C@@H](OC)[C@H]1OC` (some centres undefined), the carcinogen call runs as follows: (mouse, strain C57BL/6, females, in feed, site: liver, lesion: one or several types, types not named, dosed 52 weeks, study length 52 weeks) “negative (inactive)”; (mouse, strain C57BL/6, females, in feed, site: lung, lesion: one or several types, types not named, dosed 52 weeks, study length 52 weeks) “negative (inactive)”; (mouse, strain C57BL/6, males, in feed, site: liver, lesion: one or several types, types not named, dosed 52 weeks, study length 52 weeks) “negative (inactive)”; (mouse, strain C57BL/6, males, in feed, site: lung, lesion: one or several types, types not named, dosed 52 weeks, study length 52 weeks) “negative (inactive)”.
As to `CC1CN(N=O)CC(C)N1C(=O)c1ccccc1` (centres undefined), where the note is “rat, strain Fischer 344, females, in drinking water, site: any site (literature study), lesion: several types, types named in the paper, dosed 50 weeks, study length 125 weeks”, the carcinogen call is “positive”. Also, the TD50 (rat, strain Fischer 344, females, in drinking water, site: forestomach, lesion: basal-cell carcinoma, dosed 50 weeks, study length 125 weeks) was 26.4 mg/kg/day; the TD50 (rat, strain Fischer 344, females, in drinking water, site: forestomach, lesion: papilloma, dosed 50 weeks, study length 125 weeks) was 9.66 mg/kg/day; the TD50 (rat, strain Fischer 344, females, in drinking water, site: liver, lesion: one or several types, types not named, dosed 50 weeks, study length 125 weeks) was determined as 9.1 mg/kg/day.
For `Cc1nc(N)cc2[nH]c3ccccc3c12`, the TD50 (mouse, strain CDF1, females, in feed, site: liver, lesion: hepatocellular carcinoma, dosed 88 weeks, study length 88 weeks) was 6.81 mg/kg/day; the TD50 (mouse, strain CDF1, males, in feed, site: liver, lesion: hepatocellular carcinoma, dosed 88 weeks, study length 88 weeks) is 88.2 mg/kg/day; the TD50 (mouse, strain CDF1, males, in feed, site: liver, lesion: several types, types named in the paper, dosed 88 weeks, study length 88 weeks) is 83.2 mg/kg/day; the TD50 (mouse, strain CDF1, males, in feed, site: lung, lesion: adenocarcinoma, dosed 88 weeks, study length 88 weeks) was found to be 81.1 mg/kg/day; the TD50 (mouse, strain CDF1, males, in feed, site: lung, lesion: adenoma, dosed 88 weeks, study length 88 weeks) stood at 224 mg/kg/day; the TD50 (rat, strain ACI, females, in feed, site: ileum, lesion: adenoma, dosed 124 weeks, study length 124 weeks) is 41.4 mg/kg/day. Besides, the TD50 is, setting by setting: (rat, strain ACI, females, in feed, site: jejunum, lesion: adenocarcinoma, dosed 124 weeks, study length 124 weeks) 41.4 mg/kg/day; (rat, strain ACI, females, in feed, site: liver, lesion: hemangioendothelial sarcoma, dosed 124 weeks, study length 124 weeks) 41.4 mg/kg/day; (rat, strain ACI, females, in feed, site: liver, lesion: neoplastic nodule, dosed 124 weeks, study length 124 weeks) 4.43 mg/kg/day; (rat, strain ACI, females, in feed, site: liver, lesion: several types, types named in the paper, dosed 124 weeks, study length 124 weeks) 4.43 mg/kg/day; (rat, strain F344/DuCrj, females, in feed, site: all sites, lesion: malignant lymphoma, dosed 112 weeks, study length 112 weeks) 29 mg/kg/day; (rat, strain F344/DuCrj, females, in feed, site: clitoral gland, lesion: adenocarcinoma, dosed 112 weeks, study length 112 weeks) 75.5 mg/kg/day. Besides, the TD50 is 12.8 mg/kg/day (rat, strain F344/DuCrj, females, in feed, site: clitoral gland, lesion: adenoma, dosed 112 weeks, study length 112 weeks); 9.42 mg/kg/day (rat, strain F344/DuCrj, females, in feed, site: clitoral gland, lesion: several types, types named in the paper, dosed 112 weeks, study length 112 weeks); 74.3 mg/kg/day (rat, strain F344/DuCrj, females, in feed, site: liver, lesion: hepatocellular adenoma, dosed 112 weeks, study length 112 weeks); 76.2 mg/kg/day (rat, strain F344/DuCrj, females, in feed, site: mammary gland, lesion: adenoma, dosed 112 weeks, study length 112 weeks); 9.78 mg/kg/day and 11.5 mg/kg/day (rat, strain F344/DuCrj, females, in feed, site: mammary gland, lesion: several types, types named in the paper, dosed 112 weeks, study length 112 weeks); 3.6 mg/kg/day (rat, strain F344/DuCrj, females, in feed, site: uterus, lesion: endometrial stromal polyp, dosed 112 weeks, study length 112 weeks). Besides, the TD50 reads like this: (rat, strain F344/DuCrj, males, in feed, site: liver, lesion: hepatocellular adenoma, dosed 112 weeks, study length 112 weeks) 10.7 mg/kg/day; (rat, strain F344/DuCrj, males, in feed, site: mammary gland, lesion: several types, types named in the paper, dosed 112 weeks, study length 112 weeks) 8.43 mg/kg/day; (rat, strain F344/DuCrj, males, in feed, site: urinary bladder, lesion: several types, types named in the paper, dosed 112 weeks, study length 112 weeks) 9.72 mg/kg/day; (rat, strain F344/DuCrj, males, in feed, site: urinary bladder, lesion: transitional-cell carcinoma, dosed 112 weeks, study length 112 weeks) 59.9 mg/kg/day; (rat, strain F344/DuCrj, males, in feed, site: urinary bladder, lesion: transitional-cell papilloma, dosed 112 weeks, study length 112 weeks) 12.3 mg/kg/day.
For the compound `CC(=O)NNC(C)=O`, the carcinogen call is “negative (inactive)” (mouse, strain Swiss, females, by gavage, site: lung, lesion: several types, types named in the paper, dosed 34 weeks, study length 95 weeks) and “negative (inactive)” (mouse, strain Swiss, females, by gavage, site: lung, lesion: several types, types named in the paper, dosed 95 weeks, study length 95 weeks). Besides, the TD50 reads like this: (mouse, strain Swiss, males, by gavage, site: lung, lesion: several types, types named in the paper, dosed 34 weeks, study length 95 weeks) 144 mg/kg/day (inactive); (mouse, strain Swiss, males, by gavage, site: lung, lesion: several types, types named in the paper, dosed 95 weeks, study length 95 weeks) 411 mg/kg/day (inactive).

The values above are taken from PubChem BioAssay AID1745844 (Carcinogenic Potency Database (CPDB), 2022).
